Where two headings read alike, the source gives them in different places. Values belong to the compound of their own block, whether it stands above or below them.
Key:
[1] = biological target: T1, human μ-opioid receptor (Homo sapiens, UniProt P35372); assay: Human μ-opioid receptor radioligand assay ([3H]-DAMGO); assay type: binding
T1 construct: expressed in transfected cells; host or cells: CHO-K1
Method: Human μ-Opioid Receptor Radioligand Assay
To investigate binding properties of test compounds to human μ-opioid receptor, transfected CHO-K1 cell membranes and [^3H]-DAMGO (Perkin Elmer, ES-542-C), as the radioligand, were used. The assay was carried out with 20 μg of membrane suspension, 1 nM of [^3H]-DAMGO in either absence or presence of either buffer or 10 μM Naloxone for total and non-specific binding, respectively. Binding buffer contained Tris-HCl 50 mM, MgCl2 5 mM at pH 7.4. Plates were incubated at 27° C. for 60 minutes. After the incubation period, the reaction mix was then transferred to MultiScreen HTS, FC plates (Millipore), filtered and plates were washed 3 times with ice-cold 10 mM Tris-HCL (pH 7.4). Filters were dried and counted at approximately 40% efficiency in a MicroBeta scintillation counter (Perkin-Elmer) using EcoScint liquid scintillation cocktail. Preferably, transfected CHO-K1 cell membranes (20 μg) were incubated with 1 nM of [^3H]-DAMGO in assay buffer containing Tris-HCl 50 mM, MgCl2 5 mM at pH 7.4. NBS (non-specific binding) was measured by adding 10 μM Naloxone. The binding of the test compound was measured at five different concentrations. Plates were incubated at 27° C. for 60 minutes. After the incubation period, the reaction mix was then transferred to MultiScreen HTS, FC plates (Millipore), filtered and plates were washed 3 times with ice-cold 10 mM Tris-HCL (pH 7.4). Filters were dried and counted at approximately 40% efficiency in a MicroBeta scintillation counter (Perkin-Elmer) using EcoScint liquid scintillation cocktail.

[2] = biological target: Human α2δ-1 subunit of Cav2.2 calcium channel (Homo sapiens, UniProt P54289); assay: Human α2δ-1 subunit of Cav2.2 calcium channel assay ([3H]-Gabapentin binding); conditions: human α2δ-1 enriched membranes, 15 nM [3H]-Gabapentin, binding expressed as Ki; read-out: α2δ1 binding activity
Human α2δ-1 subunit of Cav2.2 calcium channel, sequence (P54289 25-1103): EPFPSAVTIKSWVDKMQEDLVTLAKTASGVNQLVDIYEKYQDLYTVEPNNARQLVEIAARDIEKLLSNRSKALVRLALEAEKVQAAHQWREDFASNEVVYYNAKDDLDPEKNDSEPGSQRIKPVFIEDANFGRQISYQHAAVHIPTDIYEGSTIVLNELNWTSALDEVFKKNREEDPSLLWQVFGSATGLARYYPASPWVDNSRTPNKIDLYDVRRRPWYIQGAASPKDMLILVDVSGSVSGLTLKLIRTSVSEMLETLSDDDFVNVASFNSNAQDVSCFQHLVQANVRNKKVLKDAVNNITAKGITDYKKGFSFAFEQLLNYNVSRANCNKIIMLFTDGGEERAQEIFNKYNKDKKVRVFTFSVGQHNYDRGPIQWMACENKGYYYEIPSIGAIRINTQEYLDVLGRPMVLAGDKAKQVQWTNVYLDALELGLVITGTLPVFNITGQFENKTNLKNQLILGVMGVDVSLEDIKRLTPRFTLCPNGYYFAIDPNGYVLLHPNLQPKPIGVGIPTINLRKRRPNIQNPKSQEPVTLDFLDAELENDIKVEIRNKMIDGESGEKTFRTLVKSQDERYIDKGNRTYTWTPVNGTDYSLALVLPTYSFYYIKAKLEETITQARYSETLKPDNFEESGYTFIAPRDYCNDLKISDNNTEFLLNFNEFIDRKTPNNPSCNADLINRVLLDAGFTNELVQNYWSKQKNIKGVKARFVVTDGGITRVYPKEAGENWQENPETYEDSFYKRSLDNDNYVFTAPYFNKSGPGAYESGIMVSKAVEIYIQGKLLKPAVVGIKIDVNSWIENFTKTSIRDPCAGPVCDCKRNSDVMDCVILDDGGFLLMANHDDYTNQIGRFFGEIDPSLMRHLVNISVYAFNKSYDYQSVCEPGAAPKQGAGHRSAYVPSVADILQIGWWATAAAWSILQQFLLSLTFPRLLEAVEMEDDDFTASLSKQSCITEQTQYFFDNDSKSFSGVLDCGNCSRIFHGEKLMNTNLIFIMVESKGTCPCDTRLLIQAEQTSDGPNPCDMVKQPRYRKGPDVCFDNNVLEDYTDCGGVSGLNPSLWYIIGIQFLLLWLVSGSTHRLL
Method: Human α2δ-1 Subunit of Cav2.2 Calcium Channel Assay
Human α2δ-1 enriched membranes (2.5 μg) were incubated with 15 nM of radiolabeled [3H]-Gabapentin in assay buffer containing Hepes-KOH 10 mM, pH 7.4. NSB (non specific binding) was measured by adding 10 μM pregabalin. The binding of the test compound was measured at five different concentrations. After 60 min incubation at 27° C., binding reaction was terminated by filtering through Multiscreen GF/C (Millipore) presoaked in 0.5% polyethyleneimine in Vacuum Manifold Station, followed by 3 washes with ice-cold filtration buffer containing 50 mM Tris-HCl, pH 7.4. Filter plates were dried at 60° C. for 1 hour and 30 μl of scintillation cocktail were added to each well before radioactivity reading. Readings were performed in a Trilux 1450 Microbeta radioactive counter (Perkin Elmer).

[3] = transfected CHO-K1 cell membranes, 1 nM [3H]-DAMGO, binding expressed as Ki, read-out: Mu binding activity

T1 sequence (P35372 whole entry): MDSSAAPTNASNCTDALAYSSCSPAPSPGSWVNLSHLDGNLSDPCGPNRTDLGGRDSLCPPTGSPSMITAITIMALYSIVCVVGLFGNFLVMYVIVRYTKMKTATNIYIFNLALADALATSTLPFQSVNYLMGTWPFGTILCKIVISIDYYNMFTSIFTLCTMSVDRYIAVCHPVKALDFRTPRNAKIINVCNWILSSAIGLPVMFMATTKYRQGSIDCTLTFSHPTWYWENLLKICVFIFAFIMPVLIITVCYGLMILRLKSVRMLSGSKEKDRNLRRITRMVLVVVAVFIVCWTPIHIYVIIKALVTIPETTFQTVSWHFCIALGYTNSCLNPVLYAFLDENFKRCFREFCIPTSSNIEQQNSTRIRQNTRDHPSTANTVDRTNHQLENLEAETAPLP

SMILES: CCOc1ccc(-n2nc3c(C4CCN(Cc5ccccn5)CC4)nnc(C)c3c2C)c(F)c1 [Ex 28, 2-(4-Ethoxy-2-fluorophenyl)-3,4-dimethyl-7-(1-(pyridin-2-ylmethyl)piperidin-4-yl)-2H-pyrazolo[3,4-d]pyridazine]
Ki [1]: < 0.5 µM | Ki [2]: 0.5 to 3 µM

SMILES: CCOc1ccc(-n2nc3c(C4CCN(Cc5cccnc5)CC4)nnc(C)c3c2C)c(F)c1 [Ex 29, 2-(4-Ethoxy-2-fluorophenyl)-3,4-dimethyl-7-(1-(pyridin-3-ylmethyl)piperidin-4-yl)-2H-pyrazolo[3,4-d]pyridazine]
Ki [1, 3]: > 0.5 µM | Ki [2]: 0.5 to 3 µM

SMILES: CCOc1ccc(-n2nc3c(C4CCN(Cc5ccncc5)CC4)nnc(C)c3c2C)c(F)c1 [Ex 30, 2-(4-Ethoxy-2-fluorophenyl)-3,4-dimethyl-7-(1-(pyridin-4-ylmethyl)piperidin-4-yl)-2H-pyrazolo[3,4-d]pyridazine]
Ki [1, 3]: > 0.5 µM | Ki [2]: 0.5 to 3 µM

SMILES: CCOc1ccc(-n2nc3c(C4CCN(Cc5ncccc5O)CC4)nnc(C)c3c2C)c(F)c1 [Ex 31, 2-((4-(2-(4-Ethoxy-2-fluorophenyl)-3,4-dimethyl-2H-pyrazolo[3,4-d]pyridazin-7-yl)piperidin-1-yl)methyl)pyridin-3-ol]
Ki [1, 3]: > 0.5 µM | Ki [2]: 0.5 to 3 µM

SMILES: CCOc1ccc(-n2nc3c(C4CCN(CC5CC5)CC4)nnc(C)c3c2C)c(F)c1 [Ex 32, 7-(1-(Cyclopropyl-methyl)piperidin-4-yl)-2-(4-ethoxy-2-fluorophenyl)-3,4-dimethyl-2H-pyrazolo[3,4-d]pyridazine]
Ki [1, 3]: > 0.5 µM | Ki [2]: 0.5 to 3 µM

SMILES: CCOc1ccc(-n2nc3c(C4CCN(CC5CCOCC5)CC4)nnc(C)c3c2C)c(F)c1 [Ex 33, 2-(4-Ethoxy-2-fluorophenyl)-3,4-dimethyl-7-(1-((tetrahydro-2H-pyran-4-yl)methyl)piperidin-4-yl)-2H-pyrazolo[3,4-d]pyridazine]
Ki [1, 3]: > 0.5 µM | Ki [2]: 0.5 to 3 µM

SMILES: CCOc1ccc(-n2nc3c(C4CCN(CCC5CCOCC5)CC4)nnc(C)c3c2C)c(F)c1 [Ex 34, 2-(4-Ethoxy-2-fluorophenyl)-3,4-dimethyl-7-(1-(2-(tetrahydro-2H-pyran-4-yl)ethyl)piperidin-4-yl)-2H-pyrazolo[3,4-d]pyridazine]
Ki [1, 3]: > 0.5 µM | Ki [2]: 3 to 5 µM

SMILES: CCOc1ccc(-n2nc3c(C4CCN(Cc5cn(Cc6ccccn6)nn5)CC4)nnc(C)c3c2C)c(F)c1 [Ex 35, 2-(4-Ethoxy-2-fluorophenyl)-3,4-dimethyl-7-(1-((1-(pyridin-2-ylmethyl)-1H-1,2,3-triazol-4-yl)methyl)piperidin-4-yl)-2H-pyrazolo[3,4-d]pyridazine]
Ki [1, 3]: > 0.5 µM | Ki [2]: 0.5 to 3 µM

SMILES: CCOc1ccc(-n2nc3c(CCCNCc4ccccc4)nnc(C)c3c2C)c(F)c1 [Ex 38, N-Benzyl-3-(2-(4-ethoxy-2-fluorophenyl)-3,4-dimethyl-2H-pyrazolo[3,4-d]pyridazin-7-yl)propan-1-amine]
Ki [1, 3]: > 0.5 µM | Ki [2]: 0.5 to 3 µM

SMILES: CCOc1ccc(-n2nc3c(CCCN(C)CCc4ccccc4)nnc(C)c3c2C)c(F)c1 [Ex 39, 3-(2-(4-Ethoxy-2-fluorophenyl)-3,4-dimethyl-2H-pyrazolo[3,4-d]pyridazin-7-yl)-N-methyl-N-phenethylpropan-1-amine]
Ki [1, 3]: > 0.5 µM | Ki [2]: 0.5 to 3 µM

SMILES: CCOc1ccc(-n2nc3c(C4CCN(CCc5ccccc5F)CC4)nnc(C)c3c2C)c(F)c1 [Ex 43, 2-(4-Ethoxy-2-fluorophenyl)-7-(1-(2-fluorophenethyl)piperidin-4-yl)-3,4-dimethyl-2H-pyrazolo[3,4-d]pyridazine]
Ki [1]: < 0.5 µM | Ki [2]: 0.5 to 3 µM

SMILES: CCOc1ccc(-n2nc3c(C4CCN(CCc5cccc(F)c5)CC4)nnc(C)c3c2C)c(F)c1 [Ex 44, 2-(4-Ethoxy-2-fluorophenyl)-7-(1-(3-fluorophenethyl)piperidin-4-yl)-3,4-dimethyl-2H-pyrazolo[3,4-d]pyridazine]
Ki [1]: < 0.5 µM | Ki [2]: 0.5 to 3 µM

SMILES: CCOc1ccc(-n2nc3c(C4CCN(Cc5ncccc5F)CC4)nnc(C)c3c2C)c(F)c1 [Ex 48, 2-(4-Ethoxy-2-fluorophenyl)-7-(1-((3-fluoropyridin-2-yl)methyl)piperidin-4-yl)-3,4-dimethyl-2H-pyrazolo[3,4-d]pyridazine]
Ki [1, 3]: > 0.5 µM | Ki [2]: 0.5 to 3 µM

SMILES: CCOc1ccc(-n2nc3c(C4CCN(Cc5ncccc5C(F)(F)F)CC4)nnc(C)c3c2C)c(F)c1 [Ex 49, 2-(4-Ethoxy-2-fluorophenyl)-3,4-dimethyl-7-(1-((3-(trifluoromethyl)pyridin-2-yl)methyl)piperidin-4-yl)-2H-pyrazolo[3,4-d]pyridazine]
Ki [1, 3]: > 0.5 µM | Ki [2]: 0.5 to 3 µM

SMILES: CCOc1ccc(-n2nc3c(C4CCN(Cc5ncccc5OC)CC4)nnc(C)c3c2C)c(F)c1 [Ex 50, 2-(4-Ethoxy-2-fluorophenyl)-7-(1-((3-methoxypyridin-2-yl)methyl)piperidin-4-yl)-3,4-dimethyl-2H-pyrazolo[3,4-d]pyridazine]
Ki [1, 3]: > 0.5 µM | Ki [2]: 0.5 to 3 µM

SMILES: CCOc1ccc(-n2nc3c(C4CCN(Cc5ncccc5Cl)CC4)nnc(C)c3c2C)c(F)c1 [Ex 51, 7-(1-((3-Chloropyridin-2-yl)methyl)piperidin-4-yl)-2-(4-ethoxy-2-fluorophenyl)-3,4-dimethyl-2H-pyrazolo[3,4-d]pyridazine]
Ki [1, 3]: > 0.5 µM | Ki [2]: 0.5 to 3 µM

SMILES: CCOc1ccc(-n2nc3c(C4CCN(Cc5cc(C(F)(F)F)ccn5)CC4)nnc(C)c3c2C)c(F)c1 [Ex 52, 2-(4-Ethoxy-2-fluorophenyl)-3,4-dimethyl-7-(1-((4-(trifluoromethyl)pyridin-2-yl)methyl)piperidin-4-yl)-2H-pyrazolo[3,4-d]pyridazine]
Ki [1, 3]: > 0.5 µM | Ki [2]: 3 to 5 µM

SMILES: CCOc1ccc(-n2nc3c(C4CCN(Cc5ccc(Cl)cn5)CC4)nnc(C)c3c2C)c(F)c1 [Ex 53, 7-(1-((5-Chloropyridin-2-yl)methyl)piperidin-4-yl)-2-(4-ethoxy-2-fluorophenyl)-3,4-dimethyl-2H-pyrazolo[3,4-d]pyridazine]
Ki [1, 3]: > 0.5 µM | Ki [2]: 0.5 to 3 µM

The remaining lines, values ahead:

Ki [1, 3]: > 0.5 µM | Ki [2]: 0.5 to 3 µM
SMILES: CCOc1ccc(-n2nc3c(C4CCCN(Cc5ccccc5)C4)nnc(C)c3c2C)c(F)c1 (stereo not shown) [Ex 36, 7-(1-Benzylpiperidin-3-yl)-2-(4-ethoxy-2-fluorophenyl)-3,4-dimethyl-2H-pyrazolo[3,4-d]pyridazine]

Ki [1, 3]: > 0.5 µM | Ki [2]: 0.5 to 3 µM
SMILES: CCOc1ccc(-n2nc3c(C4CN(CCc5ccccc5)C4)nnc(C)c3c2C)c(F)c1 [Ex 37, 2-(4-Ethoxy-2-fluorophenyl)-3,4-dimethyl-7-(1-phenethylazetidin-3-yl)-2H-pyrazolo[3,4-d]pyridazine]

Ki [1, 3]: > 0.5 µM | Ki [2]: ≥ 5 µM
SMILES: CCOc1ccc(-n2nc3c(CCNCc4ccccc4)nnc(C)c3c2C)c(F)c1 [Ex 40, N-Benzyl-2-(2-(4-ethoxy-2-fluorophenyl)-3,4-dimethyl-2H-pyrazolo[3,4-d]pyridazin-7-yl)ethan-1-amine]

Ki [1, 3]: > 0.5 µM | Ki [2]: ≥ 5 µM
SMILES: CCOc1ccc(-n2nc3c(CCNCCc4ccccc4)nnc(C)c3c2C)c(F)c1 [Ex 41, 2-(2-(4-Ethoxy-2-fluorophenyl)-3,4-dimethyl-2H-pyrazolo[3,4-d]pyridazin-7-yl)-N-phenethylethan-1-amine]

Ki [1, 3]: > 0.5 µM | Ki [2]: 0.5 to 3 µM
SMILES: CCOc1ccc(-n2nc3c(C4CCN(CCc5ccccn5)CC4)nnc(C)c3c2C)c(F)c1 [Ex 42, 2-(4-Ethoxy-2-fluorophenyl)-3,4-dimethyl-7-(1-(2-(pyridin-2-yl)ethyl)piperidin-4-yl)-2H-pyrazolo[3,4-d]pyridazine]

Ki [1, 3]: > 0.5 µM | Ki [2]: 0.5 to 3 µM
SMILES: CCOc1ccc(-n2nc3c(C4CCN(CCc5cccc(OC)c5)CC4)nnc(C)c3c2C)c(F)c1 [Ex 45, 2-(4-Ethoxy-2-fluorophenyl)-7-(1-(3-methoxyphenethyl)piperidin-4-yl)-3,4-dimethyl-2H-pyrazolo[3,4-d]pyridazine]

Ki [1, 3]: > 0.5 µM | Ki [2]: 0.5 to 3 µM
SMILES: CCOc1ccc(-n2nc3c(C4CCN(CCc5ccc(F)cc5)CC4)nnc(C)c3c2C)c(F)c1 [Ex 46, 2-(4-Ethoxy-2-fluorophenyl)-7-(1-(4-fluorophenethyl)piperidin-4-yl)-3,4-dimethyl-2H-pyrazolo[3,4-d]pyridazine]

Ki [1, 3]: > 0.5 µM | Ki [2]: 0.5 to 3 µM
SMILES: CCOc1ccc(-n2nc3c(C4CCN(CCc5cccnc5)CC4)nnc(C)c3c2C)c(F)c1 [Ex 47, 2-(4-Ethoxy-2-fluorophenyl)-3,4-dimethyl-7-(1-(2-(pyridin-3-yl)ethyl)piperidin-4-yl)-2H-pyrazolo[3,4-d]pyridazine]
